Laboratory results taken from PubChem BioAssay (NCI).
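Compound exposure: 48 hours, 5 concentrations, 96-well plates. Here, GI50 denotes the concentration required for 50% inhibition of growth. Definition used: TGI = concentration required for complete inhibition of growth.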

Legend:
Test in all cases: NCI anticancer screen, dose series, 48 h; in the data active = GI50 below about 0.43 µM; inactive = the rest
[1] = system: HOP-62 NSCLC
[2] = system: COLO 205 colon
[3] = system: NCI/ADR-RES ovarian
[4] = system: HT29 colon
[5] = system: SF-295 CNS
[6] = system: 786-0 renal
[7] = system: SR leukemia
[8] = system: MDA-MB-231 breast
[9] = system: NCI-H226 lung
[10] = system: NCI-H460 lung
[11] = system: OVCAR-8 ovarian
[12] = system: OVCAR-5 ovarian
[13] = system: UACC-257 melanoma
[14] = system: T-47D breast
[15] = system: SK-MEL-5 melanoma
[16] = system: MOLT-4 leukemia
[17] = system: LOX IMVI melanoma
[18] = system: SNB-19 CNS
[19] = system: CAKI-1 renal
[20] = system: BT-549 breast
[21] = system: HCT-116 colon
[22] = system: NCI-H23 lung
[23] = system: HCC-2998 colon
[24] = system: SK-OV-3 ovarian
[25] = system: HCT-15 colon
[26] = system: SK-MEL-2 melanoma
[27] = system: SF-539 CNS
[28] = system: HOP-92 NSCLC
[29] = system: PC-3 prostate
[30] = system: SF-268 CNS
[31] = system: EKVX NSCLC
[32] = system: SN12C renal
[33] = system: NCI-H522 lung
[34] = system: SNB-75 CNS
[35] = system: MDA-MB-435
[36] = system: MALME-3M melanoma
[37] = system: SW-620 colon
[38] = system: SK-MEL-28 melanoma
[39] = system: U251 CNS
[40] = system: KM12 colon
[41] = system: HS 578T breast
[42] = system: DU-145 prostate
[43] = system: OVCAR-3 ovarian
[44] = system: OVCAR-4 ovarian
[45] = system: IGROV1 ovarian
[46] = system: M14 melanoma
[47] = system: ACHN renal
[48] = system: HL-60(TB) leukemia
[49] = system: MCF7 breast
[50] = system: UACC-62 melanoma
[51] = system: TK-10 renal
[52] = system: K-562 leukemia
[53] = system: A498 renal
[54] = system: UO-31 renal

C=C(C)[C@@H]1C/C=C(\COC(=O)[C@H](OC(C)=O)C(NC(=O)c2ccccc2)c2ccccc2)CC[C@H]2O[C@]2(C)CC/C=C(\C)CC1 (stereo partly drawn)
28 µM: TGI [15]
inactive: GI50 [1] 31.2 µM | GI50 [2] 11.2 µM | GI50 [3] 18.1 µM | GI50 [4] 13.2 µM | GI50 [5] 13.2 µM | GI50 [6] 18.5 µM | GI50 [7] 23.3 µM | GI50 [8] 12 µM | GI50 [9] 21.7 µM | GI50 [10] 15.5 µM | GI50 [11] 37.7 µM | GI50 [12] 32.1 µM | GI50 [13] 23.3 µM | GI50 [14] 23.1 µM | GI50 [15] 11.8 µM | GI50 [16] 17.6 µM | GI50 [17] 8.98 µM | GI50 [18] 27.8 µM | GI50 [19] 8.64 µM | GI50 [20] 12.9 µM | GI50 [21] 12.3 µM | GI50 [22] 19.3 µM | GI50 [23] 15.1 µM | GI50 [24] > 50 µM | GI50 [25] 12.4 µM | GI50 [26] 16.7 µM | GI50 [27] 11.2 µM | GI50 [28] 31.8 µM | GI50 [29] 13.3 µM | GI50 [30] 18.2 µM | GI50 [31] 18.6 µM | GI50 [32] 10.3 µM | GI50 [33] 12.1 µM | GI50 [34] 17.6 µM | GI50 [35] 16.8 µM | GI50 [36] 14.3 µM | GI50 [37] 16.8 µM | GI50 [38] 16.6 µM | GI50 [39] 14.9 µM | GI50 [40] 18.7 µM | GI50 [41] 15.2 µM | GI50 [42] 19.3 µM | GI50 [43] 12.2 µM | GI50 [44] 15.4 µM | GI50 [45] 17.7 µM | GI50 [46] 20.7 µM | GI50 [47] 14.6 µM | GI50 [48] 4.2 µM | GI50 [49] 8.94 µM | GI50 [50] 16.8 µM | GI50 [51] 18.8 µM | GI50 [52] 30.8 µM | GI50 [53] 13.1 µM | GI50 [54] 20.6 µM
49.4 µM: TGI [41]
38.1 µM: TGI [21]
17.8 µM: TGI [19]
44.5 µM: TGI [43] | TGI [53]
42.6 µM: TGI [36]
45.4 µM: TGI [20] | TGI [23]
19.3 µM: TGI [17]
31.8 µM: TGI [4]
25.8 µM: TGI [2]
> 50 µM: TGI [1] | TGI [3] | TGI [5] | TGI [6] | TGI [7] | TGI [8] | TGI [9] | TGI [10] | TGI [11] | TGI [12] | TGI [13] | TGI [14] | TGI [16] | TGI [18] | TGI [22] | TGI [24] | TGI [25] | TGI [26] | TGI [28] | TGI [29] | TGI [30] | TGI [31] | TGI [33] | TGI [34] | TGI [35] | TGI [38] | TGI [39] | TGI [40] | TGI [42] | TGI [44] | TGI [45] | TGI [46] | TGI [47] | TGI [48] | TGI [50] | TGI [51] | TGI [52] | TGI [54]
22.1 µM: TGI [49]
23 µM: TGI [32]
49.7 µM: TGI [37]
27.1 µM: TGI [27]
